Values joined by “and” are separate entries in the source; they are usually repeats but may differ in a detail not shown here. Equal values may be shown once. Read-outs that look alike come from different tables or passages of the source. Marks after values point to notes of the source that are not given here.
What was measured:
[1] = Aqueous stability at biorelevant pH values, 37 °C (UHPLC-DAD); assay type: physicochemical; conditions: for half-life at 100 µM / degradation rate constant k: first-order; for half-life at 100 µM: read-out: half-life t1/2 (converted)
Method: (§1) For the analysis of the samples from the chemical stability as well as the PAMPA studies, sample concentrations were determined using our previously developed ultrahigh-performance liquid chromatography–diode array detection (UHPLC-DAD) method validated for linearity, precision and accuracy. Briefly, an ACQUITY UPLC H-Class PLUS System hyphenated with a quaternary solvent delivery pump (QSM), an auto-sampler manager (FTN), a column compartment (CM) and a photodiode array (PDA) detector (Waters Corporation) was employed. Stationary phase: Acquity BEH C18 column (100 × 2.1 mm i.d., 1.7 µm; Waters Corporation), column temperature: 30 °C. The mobile phase consisted of 0.3% acetic acid in water (eluent A) and acetonitrile (eluent B). The following gradient elution was applied at a flow rate of 0.3 mL/min: 0 min 12.0% B, 19.0 min 13.5% B, 25.5 min 75.0% B, 26.0 min 100.0% B, 28.0 min 100.0% B, 28.5 min 12.0% B.
The buffers modelling the gastric fluid (pH 1.2), the intestinal fluid (pH 6.8) and the blood and the tissues (pH 7.4) were prepared as follows. Buffer pH = 1.2: 1.0 g NaCl and 3.5 mL HCl dissolved in distilled water, final volume: 500.0 mL. Buffer pH = 6.8: 20.2 g Na2HPO4∙7H2O and 3.4 g NaH2PO4∙H2O dissolved in distilled water, final volume: 1000.0 mL, pH adjustment with 0.5 M NaOH or 0.5 M HCl. Buffer pH = 7.4: one PBS tablet dissolved in 200.0 mL distilled water. The stock solutions of compounds 1–4 were prepared with dimethyl sulfoxide (DMSO) at a concentration of 10.0 mM. The stock solutions were diluted 100-fold with each buffer separately to obtain the working solutions (297.0 μL buffer + 3.0 μL stock solution). All working solutions were filtered through Phenex-RC 15 mm, 0.2 μm syringe filters (Gen-Lab Ltd., Budapest, Hungary). The samples were incubated for 81 h at 37 °C; aliquots were taken for analysis every 9 h in accordance with the time required to quantify the analytes of interest in one set of samples. The total incubation time of 81 h was applied to obtain data for ten measurement points. The previously described UHPLC-DAD method was used to examine the changes in compound concentrations (see Section 3.4).
For the determination of pH stability, the initial AUC values were compared with the data after 9 and 81 h using paired-sample t test; significant difference was reported at p < 0.05. The effects of the pH were analysed through one-way analysis of variance (ANOVA) followed by Tukey’s post hoc HSD test (p < 0.05). All experiments were performed in triplicates (n = 3).
(§2) We used the following equations to calculate the first-order reaction rate constant (k) and the half-life (t1/2) indicating the time required to reduce the concentration of diarylheptanoids by 50% [29]:ln (ct/c0) = −k × t(1) t1/2 = −ln 0.5 × k^−1(2) where ct is the concentration of the diarylheptanoids at time t, c0 is the initial concentration, k is the reaction rate constant, t is the treatment time.

[2] = Storage stability in solutions and hornbeam bark extracts (UHPLC-DAD); assay type: physicochemical; conditions: for k / t1/2: storage 23 weeks
Method: as §1, §2
The chemical stability of the isolated compounds in solutions was examined at a concentration of 50 µg/mL in methanol and water (in the latter case using methanol as co-solvent, final composition: water-methanol 90:10, v/v). Furthermore, the methanol and ethyl acetate extracts of C. betulus bark (concentration 4 mg/mL) were also studied in order to assess the effects of the accompanying substances. The storage stability studies were performed at a neutral pH value. All solutions were filtered through Phenex-RC 15 mm, 0.2 μm syringe filters (Gen-Lab Ltd., Budapest, Hungary). The samples were prepared in triplicate and stored protected from light at 22 ± 2.0 °C, 5 ± 1.5 °C and −15 ± 2.0 °C for 23 weeks. Quantities of the analytes of interest were quantified at weeks 12 and 23 using the abovementioned UHPLC-DAD method (see Section 3.4).
The effects of the temperature and the medium (i.e., solvent and accompanying substances) were analysed through one-way analysis of variance (ANOVA) followed by Tukey’s post hoc HSD test (p < 0.05). To establish the kinetic parameters t1/2 and k, Equations (1) and (2) were applied, respectively.

## O=C1C[C@H](O)[C@@H](O)Cc2ccc(O)c(c2)-c2cc(ccc2O)C[C@H]1O [Compound 1, carpinontriol A]
[1]; 9 h, pH 1.2, 37 °C
  relative concentration compared to the initial value: 97.1 ± 8.9 ^a %
[1]; 9 h, pH 6.8, 37 °C
  relative concentration compared to the initial value: 97.4 ± 1.5% and 97.4 ± 1.5 ^#a %
[1]; 9 h, pH 7.4, 37 °C
  relative concentration compared to the initial value: 96.9 ± 1.2 ^a %
[1]; 81 h, pH 1.2, 37 °C
  relative concentration compared to the initial value: 70.5 ± 2.6% and 70.5 ± 2.6 ^#b %
[1]; 81 h, pH 6.8, 37 °C
  relative concentration compared to the initial value: 75.3 ± 3.0% and 75.3 ± 3.0 ^#b %
[1]; 81 h, pH 7.4, 37 °C
  relative concentration compared to the initial value: 71.5 ± 5.2% and 71.5 ± 5.2 ^#b %
[1]; NaCl/HCl buffer, pH 1.2, 37 °C
  half-life at 100 µM: 6.96 days
[1]; PBS, pH 7.4, 37 °C
  half-life at 100 µM: 6.9 days
[1]; pH 1.2, 37 °C
  degradation rate constant k: 0.00415 h⁻¹
[1]; pH 6.8, 37 °C
  degradation rate constant k: 0.00365 h⁻¹
[1]; pH 7.4, 37 °C
  degradation rate constant k: 0.00419 h⁻¹
[1]; sodium phosphate buffer, pH 6.8, 37 °C
  half-life at 100 µM: 7.9 days
[2]; 5 °C, SA (aqueous solution)
  k: 4.47 × 10^−3 Week^−1
  t1/2: 147.48 Week
[2]; 5 °C, SM (methanol solution)
  k: 1.40 × 10^−2 Week^−1
[2]; 12 weeks, 5 °C, EE (ethyl acetate extract of bark)
  concentration as compared to the initial value: 104.6 ± 1.0 ^#bcg %
[2]; 12 weeks, 5 °C, EM (methanol extract of bark)
  concentration as compared to the initial value: 110.1 ± 6.2 ^bc %
[2]; 12 weeks, 5 °C, SA (aqueous solution)
  concentration as compared to the initial value: 91.4 ± 0.2 ^#def %
[2]; 12 weeks, 5 °C, SM (methanol solution)
  concentration as compared to the initial value: 90.8 ± 2.3 ^#def %
[2]; 12 weeks, 22 °C, EE (ethyl acetate extract of bark)
  concentration as compared to the initial value: 110.9 ± 3.6 ^#bc %
[2]; 12 weeks, 22 °C, EM (methanol extract of bark)
  concentration as compared to the initial value: 114.0 ± 2.2 ^#b %
[2]; 12 weeks, 22 °C, SA (aqueous solution)
  concentration as compared to the initial value: 61.7 ± 5.7 ^#a %
[2]; 12 weeks, 22 °C, SM (methanol solution)
  concentration as compared to the initial value: 63.5 ± 8.7 ^#a %
[2]; 12 weeks, −15 °C, EE (ethyl acetate extract of bark)
  concentration as compared to the initial value: 100.5 ± 0.5 ^ceg %
[2]; 12 weeks, −15 °C, EM (methanol extract of bark)
  concentration as compared to the initial value: 108.7 ± 1.5 ^#bc %
[2]; 12 weeks, −15 °C, SA (aqueous solution)
  concentration as compared to the initial value: 93.5 ± 0.4 ^#ef %
[2]; 12 weeks, −15 °C, SM (methanol solution)
  concentration as compared to the initial value: 94.0 ± 0.8 ^#efg %
[2]; 22 °C, SA (aqueous solution)
  k: 5.97 × 10^−2 Week^−1
  t1/2: 11.61 Week
[2]; 22 °C, SM (methanol solution)
  k: 4.53 × 10^−2 Week^−1
  t1/2: 15.30 Week
[2]; 23 weeks, 5 °C, EE (ethyl acetate extract of bark)
  concentration as compared to the initial value: 92.1 ± 1.3 ^#def %
[2]; 23 weeks, 5 °C, EM (methanol extract of bark)
  concentration as compared to the initial value: 84.1 ± 1.1 ^#dfi %
[2]; 23 weeks, 5 °C, SA (aqueous solution)
  concentration as compared to the initial value: 87.2 ± 0.4 ^#dfi %
[2]; 23 weeks, 5 °C, SM (methanol solution)
  concentration as compared to the initial value: 67.1 ± 7.5 ^#aj %
[2]; 23 weeks, 22 °C, EE (ethyl acetate extract of bark)
  concentration as compared to the initial value: 81.5 ± 3.9 ^#di %
[2]; 23 weeks, 22 °C, EM (methanol extract of bark)
  concentration as compared to the initial value: 77.7 ± 2.9 ^#ij %
[2]; 23 weeks, 22 °C, SA (aqueous solution)
  concentration as compared to the initial value: 23.0 ± 0.5 ^#h %
[2]; 23 weeks, 22 °C, SM (methanol solution)
  concentration as compared to the initial value: 32.3 ± 6.3 ^#h %
[2]; 23 weeks, −15 °C, EE (ethyl acetate extract of bark)
  concentration as compared to the initial value: 91.3 ± 4.2 ^#def %
[2]; 23 weeks, −15 °C, EM (methanol extract of bark)
  concentration as compared to the initial value: 88.3 ± 3.4 ^#dfi %
[2]; 23 weeks, −15 °C, SA (aqueous solution)
  concentration as compared to the initial value: 93.7 ± 0.3 ^#efg %
[2]; 23 weeks, −15 °C, SM (methanol solution)
  concentration as compared to the initial value: 88.9 ± 3.1 ^#dfi %
[2]; −15 °C, SA (aqueous solution)
  k: 1.70 × 10^−3 Week^−1
  t1/2: 407.73 Week
[2]; −15 °C, SM (methanol solution)
  k: 3.60 × 10^−3 Week^−1
  t1/2: 192.54 Week

Reference: publication PMC10488193, “Evaluation of the Chemical Stability, Membrane Permeability and Antiproliferative Activity of Cyclic Diarylheptanoids from European Hornbeam (Carpinus betulus L.)” (International Journal of Molecular Sciences, 2023)
